For series [1], the system named is dormant tubercle bacilli grown under hypoxic condition. The series can be described thus: Activity against latent TB bacilli, Wayne's dormant model. The class given is cell-based, M. tuberculosis.
Series [2] has as its system Staphylococcus aureus (NCIM5021). The series can be described thus: MIC by micro dilution broth assay with resazurin. The series is classed as cell-based. The settings on record: 18 hours at 37° C. How it is done:
(§1) The minimum inhibitory concentration (MIC) of the compound of formula (I) is determined for other bacterial pathogens Staphylococcus aureus (NCIM5021), Pseudomonas aeruginosa (NClM5029) and Escherichia coli (NCIM2931). The minimum inhibitory concentration (MIC) is determined by micro dilution broth assay method with modifications using resazurin as an indicator as follows:
(§2) (i) dissolving the compound of formula (I) in absolute ethanol to a concentration of 10 mg/ml;
(§3) (ii) Serially diluting the compound and adding to successive wells in a 96 well microtiter plate and incubating with the bacterial pathogens for 18 hours at 37° C.;
(§4) (iii) maintaining the growth and sterility controls during the experiment;
(§5) (iv) adding 10 μl of 0.01% resazurin solution and incubating for 2 hours;
(§6) (v) visually assessing the color change.
(§7) Blue colour indicates inhibition of growth, indicating MIC.
A general note: Resazurin is reduced to fluorescent resorufin, in cell work by metabolically active cells.

Series [3] concerns Escherichia coli (NCIM2931). Description: MIC by micro dilution broth assay with resazurin. As to conditions: 18 hours at 37° C. The class given is cell-based. How it is done:
as §1, §2, §3, §4, §5, §6, §7

The subject of series [4] is Pseudomonas aeruginosa (NCIM5029). The series can be described thus: MIC by micro dilution broth assay with resazurin. The class given is cell-based. As to conditions: 18 hours at 37° C. The protocol:
as §1, §2, §3, §4, §5, §6, §7

Series [5] deals with M. tuberculosis (XDR). Description: microbe, parasite or virus in culture. The class given is cell-based. As to conditions: Mycobacterium tuberculosis.
For series [6], the system named is biofilm of M. tuberculosis isolates (SHRE sensitive, MDR and XDR). Description: Inhibitory activity against MTB biofilm. The class given is cell-based.
The subject of series [7] is Indie-Cl (Clade C virus). Description: Anti-HIV activity of purified compound, p24 antigen in infected PBMC. The series is classed as cell-based, HIV-1. The settings on record: day 7, 0 μg/ml control 406. The protocol:
(§8) Virus production by transfection of 293T cells: 293T cells are plated at a concentration of 1×10^6 cells/ml in a 100 mm culture dish and grown at 37° C. in a CO2 incubator for 24 hours. Cells are transfected with 20 μg of HIV IIIB plasmid DNA using the mammalian cell transfection kit (Millipore). The culture supernatant is collected at 48 hours post transfection, clarified by centrifugation and stored in liquid nitrogen.
(§9) Titration of virus stock: Seven serial four-fold dilutions of virus stock, ranging from 1:[…] are titrated in triplicate in a 96-well flat bottomed tissue culture plate containing 200,000 cells/well (PBMC stimulated with PHA for 72 hours). After 7 days of culture at 37° C. in a CO2 incubator, the titration assay is terminated and the culture supernatants are tested for HIV-1 p24 antigen. The TCID50 (tissue culture infection dose50) is calculated employing the Spearman-Kaber method.
(§10) Testing for anti-HIV activity of compound: HIV IIIB is used as a representative Glade B virus and Indie-Cl as a representative Glade C virus. Healthy donor PBMC (Peripheral blood mononuclear cells) activated through PHA (Phyto heme agglutinin) stimulation for 72 hours are incubated with 100TCID50 of the virus per 1×10^6 cells for 2 hours at 37° C. The cells are washed twice to get rid of the unadsorbed virus and plated at a concentration of 200,000 cells/well in a 96-well tissue culture plate. Varying concentrations of the compound are added to triplicate wells (concentrations tested were 0.001 μg/ml, 001 μg/ml, 0.1 μg/ml, 1.0 μg/ml, 5.0 μg/ml and 10.0 tg/ml). Control cultures are set up without addition of the compound. Cultures are maintained for 7 days at 37° C. in a CO2 incubator. On day 7, culture supernatants are tested for HIV-1 p24 antigen.
(§11) Measurement of HIV-1 p24 antigen: HIV-1 p24 antigen production is measured as an indirect measure of viral replication in the culture supernatants using the Alliance HIV-1 p24 ELISA kit (Perkin Elmer, USA).
(§12) Virus growth is .determined, by measuring p24 concentrations in culture supernatants.

In series [8] the test system is HIV IIIB (Clade B virus). The description is as above. The settings on record: day 7, 0 μg/ml control 2394. The series is classed as cell-based, HIV-1. How it is done:
as §8, §9, §10, §11, §12

The subject of series [9] is 3T3 cells. Description: Cytotoxicity, MTT assay. The class given is cell-based. Set-up: unit of the concentration uncertain. The settings on record: for Average % Viability: 3T3 cells, MTT. How it is done: Cytotoxicity of the compound is measured by adopting MTT assay (Mosmann, 1983) as follows:
(i) preparing, the sample by inoculating 3T3 cells in 5×10^4 concentrations in each well of 96 well microtiter plates with in Dulbecco's modified Eagles medium (DMEM) containing 10% FBS, 100 U/ml Penicillin 100 µg/ml Streptomycin;
(ii) incubating for a period of 2 days at a temperature of 37° C. in 5% CO2 atmosphere (Astec Japan); […]
(iv) Discarding the growth medium in the plates and washing the wells with phosphate buffer saline (PBS);
(v) Adding MTT in growth medium at a final concentration of 0.5 mg/ml and incubating for 4 hours;
(vi) solublizing the insoluble formazan crystals' with 0.04N HCl in isopropylalcohol and measuring the absorption on a Spectramax Plus384 spectrophotometer (Molecular Devices, Calif., USA) at 570 nm.
For each of the samples evaluated, the test is performed in triplicate. The control cells are treated with PBS. Overnight experiment is done with DMSO alone as a control.

Series [10] in a line: Solubility of purified compound in solvents. The series is classed as physicochemical. The protocol: Solubility of purified compound is tested by adding the purified compound in 100 jxl of solvents such as methanol, chloroform, dichloromethane, diethyl ether, ethyl acetate and n-hexane. Melting point of the purified compound is tested using Tempo instrument and is determined as 240-242° C.

In series [11] the test system is M. tuberculosis H37Rv. Description: microbe, parasite or virus in culture. The settings on record: Mycobacterium tuberculosis. The series is classed as cell-based.
Series [12] has as its system M. tuberculosis SHRE sensitive. Description: microbe, parasite or virus in culture. The settings on record: Mycobacterium tuberculosis. The series is classed as cell-based.

*1 amine or outer side, *2 acyl side, *3 side chain or, on linkers, in order; H or OH if unused. Where a SMILES comes first, the peptide text is derived from it. Bridges are numbered along the chain shown (N, C = ends). Roman numbers before positions name the chains, in order. [ ]: non-standard residue; d: D form. Actinocin(1to9) = Cc1c2oc3c(C)ccc(C(=O)[*:2])c3nc-2c(C(=O)[*:1])c(N)c1=O; Pro(4-oxo) = O=C1CN[C@H](C(=O)O)C1; NMeV = CN[C@H](C(=O)O)C(C)C; Sar = CNCC(=O)O

Take `NNC(=O)c1ccncc1` [INH, reference compound]: in series [1] (negative control), the “Effect of standard drug against latent tubercle bacilli” value is reported as “resistant”.

With `Cc1c2oc3c(C)ccc(C(=O)N[C@@H]4C(=O)N[C@@H](C(C)C)C(=O)N5CCC[C@H]5C(=O)N(C)CC(=O)N(C)[C@@H](C(C)C)C(=O)O[C@@H]4C)c3nc-2c(C(=O)N[C@@H]2C(=O)N[C@@H](C(C)C)C(=O)N3CC(=O)C[C@H]3C(=O)N(C)CC(=O)N(C)[C@@H](C(C)C)C(=O)O[C@@H]2C)c(N)c1=O` [compound of formula (I), Transitmycin] (I: TV[Pro(4-oxo)][Sar][NMeV] / II: TVP[Sar][NMeV]; ester I:1-I:C, II:1-II:C; linker I:N-II:N via Actinocin(1to9)), the MIC was 139 µg/mL in series [2]; 17.4 µg/mL in series [3]; 17.4 µg/mL in [4]; 6.25 µg/mL in series [5]; < 1 µg/mL in [11]; 1.5 µg/mL in [12]. The Biofilm formation entry in [6] (100 μg/ml, 37° C., 5 weeks) was “no, biofilm formation”. In addition, the “Viable colonies (CFU) after treatment of wells” value in [6] (at the end of 2 months, […]) is “no viable colonies”. For the same molecule, the P24 antigen in series [7] (compound 0.001 μg/ml) turned out to be 390 pg/mL; in [7] (compound 0.01 μg/ml) it was 310 pg/mL; in series [7] (compound 0.1 μg/ml), 344 pg/mL; in series [7] (compound 1 μg/ml) it was 302 pg/mL; in series [7] (compound 5 μg/ml), 295 pg/mL; in series [7] (compound 10 μg/ml) it was 296 pg/mL. In addition, the P24 antigen was 1603 pg/mL in [8] (compound 0.001 μg/ml); 337 pg/mL in series [8] (compound 0.01 μg/ml); 163 pg/mL in series [8] (compound 0.1 μg/ml); 144 pg/mL in series [8] (compound 1 μg/ml); 147 pg/mL in [8] (compound 5 μg/ml); 163 pg/mL in series [8] (compound 10 μg/ml). The “Average % Viability” value in [9] (10 (unit uncertain)) was 93.00%; in series [9] (25 (unit uncertain)), 86.01%; in series [9] (50 (unit uncertain)), 73.88%; in series [9] (100 (unit uncertain)), 66.13%. Besides, in series [9] (even at 100 (unit uncertain) concentration), the Cytotoxic activity result was “very poor cytotoxic activity”. Further, the Solubility result in series [10] (Chloroform, Dichloromethane, Ethyl acetate, Methanol, Ethanol, Acetonitrile, DMSO, water) is “Souble”; in series [10] (Hexane), “Insoluble”. For the same molecule, in series [1], the “CFU in M. tuberculosis cultures compared with CFU without the compound” value was “Reduction in the CFU”.

For the origin of these results see patent US20160200769A1, “Compound, Transitmycin, Effective Against Bacterial and Viral Pathogens” (INDIAN COUNCIL OF MEDICAL RESEARCH, priority 2013, published 2016).
